Measured values taken from ChEMBL document CHEMBL6103580, “Synthesis and biological evaluation of natural cleistanolate, its enantiomer and analogues” (Eur J Med Chem, 2025).
Calls of active or inactive are those of the source. The rule behind the calls is not given here.

What was measured:
MCF7 = assay: Antiproliferative activity against human MCF7 cells assessed as inhibition of cell growth incubated for 72 hrs by MTT assay; assay type: functional, cell-based; details: MCF7, 72 h
[1] = Antiproliferative activity against human MRC5 cells assessed as inhibition of cell growth incubated for 72 hrs by MTT assay; assay type: toxicity, cell-based
Jurkat = assay: Antiproliferative activity against human Jurkat cells assessed as inhibition of cell growth incubated for 72 hrs by MTT assay; assay type: functional, cell-based
MDA-MB-231 = assay: Antiproliferative activity against human MDA-MB-231 cells assessed as inhibition of cell growth incubated for 72 hrs by MTT assay; assay type: functional, cell-based; details: MDA-MB-231, 72 h
Raji [2] = assay: Potency index, ratio of cleistanolate IC50 to test compound IC50 for antiproliferative activity against human Raji cells assessed as inhibition of cell growth incubated for 72 hrs by MTT assay; assay type: functional
Raji [3] = assay: Antiproliferative activity against human Raji cells assessed as inhibition of cell growth incubated for 72 hrs by MTT assay; assay type: functional, cell-based
K562 = assay: Antiproliferative activity against human K562 cells assessed as inhibition of cell growth incubated for 72 hrs by MTT assay; assay type: functional, cell-based; details: K562, 72 h
A549 = assay: Antiproliferative activity against human A549 cells assessed as inhibition of cell growth incubated for 72 hrs by MTT assay; assay type: functional, cell-based; details: A549, 72 h
HL-60 = assay: Antiproliferative activity against human HL-60 cells assessed as inhibition of cell growth incubated for 72 hrs by MTT assay; assay type: functional, cell-based; details: HL-60, 72 h
HeLa = assay: Antiproliferative activity against human HeLa cells assessed as inhibition of cell growth incubated for 72 hrs by MTT assay; assay type: functional, cell-based
[4] = Potency index, ratio of cleistanolate IC50 to test compound IC50 for antiproliferative activity against human HeLa cells assessed as inhibition of cell growth incubated for 72 hrs by MTT assay; assay type: functional
Candida tropicalis = assay: Antifungal activity against Candida tropicalis CCY 29-7-62 assessed as reduction in fungal growth incubated for 48 hrs by muller hinton broth microdilution based XTT assay; assay type: functional
Vibrio cholerae = assay: Antibacterial activity against Vibrio cholerae O139 CIRS 245 assessed as reduction in cell viability incubated for 24 hrs by muller hinton broth microdilution based XTT assay; assay type: functional
Escherichia coli [5] = assay: Antibacterial activity against Escherichia coli ZPM 132 assessed as reduction in cell viability incubated for 24 hrs by muller hinton broth microdilution based XTT assay; assay type: functional
Streptococcus pneumoniae = assay: Antibacterial activity against Streptococcus pneumoniae ZPM 187 assessed as reduction in cell viability incubated for 24 hrs by muller hinton broth microdilution based XTT assay; assay type: functional
[6] = target: Cholinesterase (Homo sapiens) (UniProt P06276); assay: Inhibition of human BChE at 100 uM using acetylthiocholine iodide as substrate by DTNB reagent based Ellman spectrophotometric analysis relative to control
Cholinesterase (Homo sapiens), sequence (P06276 whole entry): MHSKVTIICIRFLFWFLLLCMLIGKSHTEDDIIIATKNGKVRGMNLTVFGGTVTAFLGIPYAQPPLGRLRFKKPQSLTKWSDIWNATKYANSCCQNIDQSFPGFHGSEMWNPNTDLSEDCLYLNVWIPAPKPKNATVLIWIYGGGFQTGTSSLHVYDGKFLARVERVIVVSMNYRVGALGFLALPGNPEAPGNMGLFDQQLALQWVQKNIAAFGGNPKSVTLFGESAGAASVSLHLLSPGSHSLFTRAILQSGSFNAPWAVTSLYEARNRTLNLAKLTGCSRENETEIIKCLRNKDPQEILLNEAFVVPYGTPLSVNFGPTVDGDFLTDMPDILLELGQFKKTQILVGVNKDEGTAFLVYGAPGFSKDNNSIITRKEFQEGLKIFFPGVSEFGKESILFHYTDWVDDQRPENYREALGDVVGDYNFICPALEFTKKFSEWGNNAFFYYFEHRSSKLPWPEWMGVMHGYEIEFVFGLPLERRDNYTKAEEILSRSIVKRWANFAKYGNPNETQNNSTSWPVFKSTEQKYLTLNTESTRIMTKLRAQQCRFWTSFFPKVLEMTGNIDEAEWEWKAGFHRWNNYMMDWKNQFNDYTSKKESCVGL

Escherichia coli [7] = assay: Antimicrobial activity against Escherichia coli ZPM 132 assessed as reduction in cell viability incubated for 24 hrs by muller hinton broth microdilution based XTT assay; assay type: functional

| Structure (SMILES) | IC50 (MCF7) [µM] | IC50 at 72 h [1] [µM] | IC50 (Jurkat) [µM] | IC50 (MDA-MB-231) [µM] | Ratio IC50 (Raji [2]) | IC50 (Raji [3]) [µM] | IC50 (K562) [µM] | IC50 (A549) [µM] | IC50 (HL-60) [µM] | IC50 (HeLa) [µM] | Ratio IC50 [4] | MFC (Candida tropicalis) [mg/L] | MBC (Vibrio cholerae) [mg/L] | MBC (Escherichia coli [5]) [mg/L] | MBC (Streptococcus pneumoniae) [mg/L] | inhibition [6] | MIC (Escherichia coli [7]) [mg/L] |
| --- | --- | --- | --- | --- | --- | --- | --- | --- | --- | --- | --- | --- | --- | --- | --- | --- | --- |
| O=C1C[C@@H]2O[C@@H](CO)[C@@H](O)[C@@H]2O1 | 4.02 | > 100 | 7.38 | 30 | 2.1 | 10.2 | 5.56 | 15.9 | 11.2 | 7.26 |  |  |  |  |  |  |  |
| O=C1C[C@H]2O[C@@H]3CO[C@@H]3[C@H]2O1 | 1.05 | > 100 | 10.4 | 5.36 |  | 15.7 | 2.03 | 18.6 | 15.6 | 1.2 | 2.5 |  |  |  |  |  |  |
| CO[C@H]1CC(=O)O[C@H]1[C@H](OC(C)=O)[C@@H](COC(=O)c1ccccc1)OC(C)=O | 29.4 | 87.9 | 24.2 | 13.2 |  | 27.7 | 16.2 | 21.4 | 19.4 | 23.8 |  | > 100 | > 100 | > 1000 | > 100 | 85% | > 1000 |
| O=C1C[C@@H]2O[C@@H](CI)[C@@H](O)[C@@H]2O1 | 19.4 | > 100 | 22.8 | 17.7 |  | 26.2 | 15.1 | 24.6 | 16.7 | 20.1 |  | > 100 | > 100 | > 1000 | > 100 | inactive | > 1000 |
| CO[C@@H]1CC(=O)O[C@@H]1[C@H]1OC(=O)O[C@H]1COC(=O)c1ccccc1 | 4.31 | > 100 | 16 | 25.8 |  | 21.3 | 10 | 13.4 | 10.6 | 7.03 |  |  |  |  |  | 51% |  |
| CO[C@@H]1CC(=O)O[C@@H]1[C@@H](O)[C@@H](O)COC(=O)c1ccccc1 | 14.4 | > 100 | 20.2 | 27.7 |  | 15.4 | 11.4 | 11.4 | 12.1 | 7.65 |  |  |  |  |  |  |  |
| CO[C@H]1CC(=O)O[C@H]1[C@H](O)[C@@H](O)COC(=O)c1ccccc1 | 12.8 | > 100 | 32 | 19.9 |  | 21 | 9.89 | 29.6 | 10.3 | 10.6 |  |  |  |  |  |  |  |
| C=C[C@H](OCc1ccccc1)[C@H]1OC(=O)C[C@H]1OC | 5.67 | > 100 | 11.6 | 12.6 |  | 34.4 | 7.59 | 27.9 | 12.7 | 11.5 |  |  |  |  |  |  |  |
| O=C1C[C@@H](O)[C@@H]([C@@H](O)[C@@H](O)CO)O1 | 19.5 | > 100 | 20.3 | 19.6 |  | 24.4 | 16.5 | 23.6 | 19.3 | 12.9 |  |  |  |  |  |  |  |
| C=C[C@@H](OCc1ccccc1)[C@@H]1OC(=O)C[C@@H]1OC | 16.9 | > 100 | 9.85 | 42.3 |  | 12.9 | 4.42 | 18.7 | 12.1 | 26.4 |  |  |  |  |  |  |  |
| CO[C@H]1CC(=O)O[C@H]1[C@H](O)[C@H](O)COC(=O)c1ccccc1 | 14.1 | > 100 | 16.5 | 45.2 |  | 19.7 | 3.97 | 18.7 | 9.45 | 16 |  | > 100 | > 100 | > 1000 | > 100 | inactive | > 1000 |
| O=C1C[C@H]2O[C@H](CI)[C@H](O)[C@H]2O1 |  |  |  |  |  |  |  |  |  |  |  | > 100 | > 100 | > 1000 | > 100 | inactive | > 1000 |
